Non-standard residues stand in square brackets, D forms with d. Residues, ends and D or L forms follow the SMILES beside them.
Tests used:
[1] = target: T1, Tau^FL-P301L (Homo sapiens, UniProt P10636, P618L); assay: Fibrillization of Tau^FL-P301L monitored by ThS assay; type: biochemical; details: Tau:peptide = 1:1; 1:5; 1:10
T1 construct: Tau^FL-P301L Full-length Tau mutant P301L
Protocol: For Tau fibrillization inhibition assays, 10 μM Tau mutant protein (Tau^RDΔK, Tau^FLΔK, Tau^FL-A152T, Tau^FL-P301L) was incubated in BES buffer (N,N-bis(2-hydroxyethyl)-2-aminoethanesulfonic acid, pH 7) in the presence of 2.5 μM heparin at 37 °C for 24 h with and without novel D-peptides (ISAD1 and ISAD1rev) at different concentrations (1 nM to 200 μM). Final concentration of 20 μM ThS was used for monitoring fibrillization. The assay was performed with 40-μl sample volume per well in a 384-well microtiter plate (Thermo LabSystems, Dreieich, Germany). The fibrillization of Tau was monitored by ThS and the relative fluorescence intensity of ThS was read out at 440 excitation/521 emission nm in a Tecan micro titer plate reader (Tecan, Männedorf, Switzerland).

[2] = target: T2, Tau^RDΔK (Homo sapiens, UniProt P10636, DEL597-597); assay: Pelleting assay and western blot, Tau^RDΔK; type: biochemical; details: 10 μM Tau, 100 μM peptide, 24 h, 61,000 rpm 60 min, K9JA western blot
T2 construct: Tau^RDΔK Pro-aggregant repeat domain Tau mutant ΔK280; made in house
Protocol: After the ThS assay (end time point, 24 h), 70 μl of each sample (pooled together from 2 wells) was centrifuged in a Beckmann coulter (Optima Max Ultra Centrifuge, TLA 100.3 rotor) at 61,000 rpm for 60 min at 4 °C. After centrifugation, the supernatant was separated from the pellet. Then, the pellet was dissolved in BES buffer in an equal volume as the supernatant. For the following western blot, 12-μl samples were mixed with 3-μl SDS-sample buffer (5x), heated for 5 min at 95 °C, and loaded onto a 8–16% SDS tris-glycine-gel (BioRad, Feldkirchen, Germany). The proteins were transferred to a polyvinylidene fluoride (PVDF) membrane. After the transfer, the membrane was blocked in 5% non-fat dry milk. After washing the membrane three times for 10 min with TBST, the primary pan-Tau K9JA antibody (1:5000; Agilent, Waldbronn, Germany) was incubated for 1 h at RT with gentle agitation, followed by again 3-times washing with TBST. For detection on western blot, the secondary antibody (goat anti-rabbit HRP, Agilent, Waldbronn, Germany) was incubated in a 1:2000 dilution for 1 h at RT with shaking. […] The quantification of intensities was performed using ImageJ.

[3] = system: N2a cells expressing Tau^RDΔK; assay: Uptake of FAM-labeled D-peptides by confocal microscopy; type: cell-based; details: 25 μM FAM-labeled peptide, 24 h, fixed cells
Protocol: In order to become potentially suitable for therapeutic development, the D-peptides should be internalized by neurons. To test this, 25 μM FAM-labeled ISAD1 or its inversed form was added to cells that express pro-aggregant mutant Tau^RDΔK for 24 h followed by cell fixation.
Fig. 7 Uptake of fluorescence-labeled D-peptides analyzed by confocal microscopy. 25 μM FAM-labeled peptides (ISAD1 and ISArev) were incubated with N2a cells expressing Tau^RDΔK for 24 h. The uptake of D-peptides was analyzed by confocal microscopy. As shown in the representative images, the peptides are mainly localized in the cytoplasm (A1, B1 Draq5 shown as red; A2 ISAD1-FAM, B2 ISAD1rev-FAM; A3, B3 merged images)

[4] = system: N2a-Tau^RDΔK cells; assay: MTT cytotoxicity of the peptides alone; type: cell-based; details: 25, 50, 100, 250 μM peptide, 24 h, n = 3
Protocol: Cell viability was analyzed in accordance with the manufacturer’s protocol (Roche Diagnostics, Mannheim, Germany; cell proliferation kit II (MTT)). This assay is based on the cleavage of the yellow tetrazolium salt MTT into purple formazan dye by metabolic active cells. The color changes only in viable cells and can be directly quantified using a scanning multiwell spectrophotometer. In all experiments, the cells were grown as described previously. The cells (25,000 cells/well or 80% confluence) were plated on poly D-lysine-coated 96-well plates (Greiner Bio-One GmbH, Frickenhausen, Germany) for stronger attachment from overnight to 24 h at 37 °C. Fibrillized Tau^RDΔK was generated by incubating 200 μM Tau^RDΔK in BES buffer at 37 °C for 24 h in the presence of 2 mM D-peptides (Tau^RDΔK:peptide = 1:10). Successful fibrillization was verified using ThS (5 μM Tau^RDΔK, 10 μM ThS) measurement. The aggregated Tau^RDΔK (10 μM final concentration), Tau^RDΔK (10 μM) + peptide (100 μM) samples (ISAD1 and ISAD1rev), buffer only (negative control, set to 100% cell viability), and TritonX-100 (2%, cytotoxic agent, positive control) were incubated on N2a-Tau^RDΔK cells (100 μl solution) for another 24 h. The cell viability was measured in accordance with the manufacturer’s protocol.
A MTT-based cytotoxicity assay in the presence of ISAD1 and ISAD1rev peptides. […]

[5] = system: N2a-Tau^RDΔK cells; assay: LDH release, intracellularly expressed Tau^RDΔK (Dox induced); type: cell-based; details: 1 μg/ml doxycycline, peptide 25, 50, 100, 250 μM, n = 2
Protocol: After the N2a-Tau^RDΔK cells reached the desired confluence (25,000 cells/well or 80%), intracellular Tau^RDΔK expression was induced by the addition of 1 μg/ml Dox. The cells were plated on poly D-lysine-coated 96-well plates (Greiner Bio-One GmbH, Frickenhausen, Germany) and treated with ISAD1 and ISAD1rev in a concentration range of 25 to 250 μM. TritonX-100 (2%) was used as a positive control. The incubation and Tau^RDΔK expression time was 72 h. Following incubation, cell viability was studied by measuring MTT and LDH release in accordance with the manufacturer’s protocol.

T1 sequence (P10636 1-441 isoform P10636-8 P301L): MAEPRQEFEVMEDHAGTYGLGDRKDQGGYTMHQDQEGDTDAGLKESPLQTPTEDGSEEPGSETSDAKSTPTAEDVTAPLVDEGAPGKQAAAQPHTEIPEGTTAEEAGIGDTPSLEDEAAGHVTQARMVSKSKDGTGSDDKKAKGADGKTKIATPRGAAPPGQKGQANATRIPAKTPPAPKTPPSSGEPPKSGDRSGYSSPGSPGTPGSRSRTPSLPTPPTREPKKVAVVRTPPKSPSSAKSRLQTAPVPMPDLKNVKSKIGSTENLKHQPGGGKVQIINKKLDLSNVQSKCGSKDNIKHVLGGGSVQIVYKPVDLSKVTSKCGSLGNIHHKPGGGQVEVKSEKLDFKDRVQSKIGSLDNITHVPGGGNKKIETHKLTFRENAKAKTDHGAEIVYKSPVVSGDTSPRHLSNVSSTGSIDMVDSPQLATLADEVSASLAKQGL
T2 sequence (P10636 with tags, fused parts or gaps DEL597-597): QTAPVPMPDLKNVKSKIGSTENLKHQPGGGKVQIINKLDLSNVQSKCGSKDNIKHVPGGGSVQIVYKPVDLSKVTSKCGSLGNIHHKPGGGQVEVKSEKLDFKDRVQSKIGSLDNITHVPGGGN

CC(C)C[C@@H](NC(=O)[C@@H](CO)NC(=O)[C@@H](CC(C)C)NC(=O)[C@H](NC(=O)[C@@H](CC(=O)O)NC(=O)[C@@H](C)NC(=O)[C@@H](C)NC(=O)[C@H](N)CO)[C@H](C)O)C(=O)N[C@H](CCCCN)C(=O)N[C@H](Cc1ccccc1)C(=O)N[C@@H](C(=O)N[C@H](CO)C(=O)O)C(C)C [ISAD1rev] (H-[dS][dA][dA][dD][dT][dL][dS][dL][dK][dF][dV][dS]-OH; N-terminus and C-terminus assumed)
Inhibition of Tau^FL-P301L fibrillization, in words [1]: weak inhibitory effects
Distribution of Tau^RDΔK between pellet and supernatant [2]: only apparent in the pellet
Intracellular localisation [3]: accumulated in the cytosol but were excluded from the nucleus
Uptake by cells [3]: almost all cells took up the D-peptides
Cytotoxicity, MTT [4]: do not induce toxic effects
Effect on LDH release of cells expressing Tau^RDΔK [5]: Protection of cell membrane integrity
